Experimental findings from patent US4774248A, “Methods of treating depression and depressive states using 5-phenyl-1,4,5,6-tetrahydropyrimidine derivatives” (priority 1985, dated 1988) are described below.

The structures appear in SMILES notation. Entries after “also recorded” stand apart in the source; their conditions may differ.

In one data set the test system is male mice. The data set is described as follows: Acute toxicity, intraperitoneal (LD0, LD30, LD60, LD100). In kind it is in vivo. As to the method: (§1) The results of toxicological and neuropsychopharmacological tests which were carried out with the products according to the invention have been summarized below. In these tests, solutions of the said products in distilled water were administered intraperitoneally in a volume of 20 ml/kg to male mice and in a volume of 5 ml/kg to male rats.

In data set [1] the test system is mice. The data set is described as follows: Overall behavior and reactivities in mice. In kind it is in vivo. To be noted: i.p. Here is the method: as §1
(§2) Groups of 3 animals are observed before and then 0.25 h, 0.50 h, 1 h, 2 h, 3 h and 24 h after the administration of CRL 41 378. The following observations are made:
(§3) Groups of 3 animals are observed before and then 0.25 h, 0.50 h, 1 h, 2 h, 3 h and 24 h after the administration of CRL 41 329.

A further data set concerns rats. The data set is described as follows: Overall behavior and reactivities in rats. In kind it is in vivo. To be noted: i.p. Here is the method:
as §1, §2, §3

Data set [2] deals with hypothermia, righting behavior and stereotypies induced by apomorphine. The data set is described as follows: Interaction with apomorphine in mice. To be noted: i.p. In kind it is in vivo. As to the method:
as §1
CRL 41 378 is administered to groups of 6 mice 30 minutes before the subcutaneous injection of 1 or 16 mg/kg of apomorphine.

Data set [3] concerns hypothermia and ptosis induced by reserpine. The data set is described as follows: Interaction with reserpine. In kind it is in vivo. To be noted: mice, i.p.; reserpine 2.5 mg/kg. Here is the method:
as §1
Four hours after the intraperitoneal injection of 2.5 mg/kg of reserpine, groups of 12 mice receive CRL 41 378.

Data set [4] concerns hypothermia, trembling and peripheral cholinergic symptoms induced by oxotremorine. The data set is described as follows: Interaction with oxotremorine. In kind it is in vivo. Conditions: mice, i.p.; oxotremorine 0.5 mg/kg. As to the method:
as §1
CRL 41 378 is administered to groups of 6 mice 0.5 h before the intraperitoneal injection of 0.5 mg/kg of oxotremorine.

Data set [5] relates to mice. The data set is described as follows: Intergroup aggressiveness. In kind it is in vivo. To be noted: mice, i.p. Here is the method:
as §1
After they have stayed for 3 weeks in the two halves of a cage divided by an opaque partition, groups of 3 mice receive CRL 41 378. Half an hour later, the two groups from the same cage are brought together by removal of the partition and the number of fights which occur in 10 minutes is noted.

For data set [6], the system named is mice. The data set is described as follows: Motility reduced by habituation to the enclosure. In kind it is in vivo. Conditions: i.p. Here is the method:
as §1
After they have stayed in the actimeters for 18 hours, the mice (6 per dose, 12 control animals) receive CRL 41 378. They are immediately returned to their respective enclosures and, half an hour later, their motility is recorded for 30 minutes.

For data set [7], the system named is mice. Nature of the data set: Behavioral despair (forced immersion). In kind it is in vivo. To be noted: mice which have been forcibly immersed, i.p. Here is the method: as §1
Half an hour after they have received CRL 41 378, groups of 6 mice are placed in a beaker filled with water to a height of 6 cm. The total period of immobility between the 2nd and 6th minutes following immersion is noted.

For data set [8], the system named is central nervous system (CNS). The data set is described as follows: Neuropsychopharmacological profile (conclusions of the tests). In kind it is in vivo, mice and rats. To be noted: for overall neuropsychopharmacological profile: summary. Here is the method:
as §1

The test system of data set [9] is hypothermia induced by apomorphine. Nature of the data set: Interaction with apomorphine by gastric administration. In kind it is in vivo. To be noted: Mus musculus, male mice, apomorphine 16 mg/kg s.c., read-out: dose as from which the hypothermia induced by apomorphine is opposed. Here is the method:
Each test product is administered gastrically to male mice, in a volume of 20 ml/kg, 0.50 h before the subcutaneous injection of 16 mg/kg of apomorphine.

The subject of data set [10] is trembling and head twitches induced by 5-hydroxytryptophan (5-HTP). The data set is described as follows: Interaction with 5-hydroxytryptophan in association with an MAOI (nialamide). In kind it is in vivo, male mice. As to the method:
The purpose of the procedure used is to investigate the activity of each product according to the invention as regards the trembling induced by 5-hydroxytryptophan (5-HTP) in association with an MAOI (in this case nialamide).
Each test product, in solution in distilled water, is administered intraperitoneally in a volume of 20 ml/kg to male mice.
Groups of 10 mice receive nialamide (20 mg/kg, administered gastrically) at time T-18 h, each test product at time T-0.5 h and then (±)-5-HTP (20 mg/kg, administered intraperitoneally) at time T. Immediately after the injection of the (±)-5-HTP, the mice are individually placed in transparent plastic boxes. The generalized trembling, the partial trembling and the head twitches are noted on a yes/no basis for 2 h.

The next data set has as its system pregnant rabbits. The data set is described as follows: Teratogenic effects on pregnant rabbits. In kind it is in vivo.
Data set [11] relates to depressions and depressive states. The data set is described as follows: Clinical trials in depression and depressive states. In kind it is in vivo, human. Here is the method:
The clinical trials which have been undertaken have made it possible to determine that the daily dose to be administered orally to adults, in the treatment of depressions and depressive states, is generally between 3 and 120 mg for the products of the formulae Ia and Ib according to the invention.

Data set [12] deals with stereotypies induced by amphetamine. Nature of the data set: Interaction with amphetamine (rats). In kind it is in vivo. To be noted: i.p.; amphetamine 2 mg/kg. Here is the method: as §1
Amphetamine (2 mg/kg) is injected intraperitoneally into groups of 6 rats 30 minutes after the administration of CRL 41 378.

[13] abbreviates: i.p., nialamide + (±)-5-HTP, male mice.

For the molecule `CC1=NCC(c2ccccc2)CN1.Cl` (centres unmarked) [CRL 41 352, 2-methyl-5-phenyl-1,4,5,6-tetrahydropyrimidine hydrochloride], the “toxic signs in the animals treated” value in the data set on male mice (64 mg/kg i.p.) was “all the animals treated exhibit sedation and a decrease in the breathing rate”. In the data set on male mice (intraperitoneal), the “LD0 (maximum non-lethal dose)” value was “greater than 64 mg/kg” and the LD30 was ~128 mg/kg. In addition, the “overall behavior and reactivities” value with mice [1] (0.5 mg/kg, 2 mg/kg, 8 mg/kg and 32 mg/kg) was “no distinct modification of the behavior and reactivities”. Further, the “overall behavior and reactivities” value in the data set on rats (4 mg/kg and 16 mg/kg) was “mydriasis”. Moreover, in the data set with rats (16 mg/kg), the “overall behavior and reactivities” value was “a decrease in the breathing rate”. Besides, in data set [2], the “action on hypothermia induced by apomorphine” value was “significant antagonism (as from the lowest doses used) of the hypothermia induced by apomorphine and oxotremorine”. The “action on hypothermia induced by reserpine” value in data set [3] was “more moderate antagonism of the hypothermia induced by reserpine”. The “action on hypothermia induced by oxotremorine” value in [4] was “significant antagonism (as from the lowest doses used) of the hypothermia induced by apomorphine and oxotremorine”. Further, the “intergroup aggressiveness (number of fights)” value in the data set on mice [5] is given as “a decrease in the number of fights in the intergroup aggressiveness test”. Besides, in the data set on mice [6], the “resumption in the motor activity of mice accustomed to their enclosure” value was “a resumption in the motor activity of mice accustomed to their enclosure”. Moreover, in the data set with mice [7], the period of immobility result is reported as “no decrease in the period of immobility due to "despair"”. In addition, in data set [8] (i.p.), the antidepressant effects result was “antidepressant effects which are very distinct”; the sedative effects result was “sedative effects appearing at very high doses”; the stimulant effects result was “a stimulant effect which is very moderate, appearing at high doses”. The overall neuropsychopharmacological profile result in [8] was “principally an antidepressant having a very slight stimulant component and a very weak sedative component”. The minimal effective dose in [9] was ≥ 0.5 mg/kg. For the same molecule, in data set [10] (5-HTP + MAOI), the “analogy with β-adrenergic stimulants in the 5-HTP procedure” value is “effects analogous to those of isoprenaline”. Besides, the “intensity of potentiation of 5-HTP effects” value in data set [10] (higher doses, 5-HTP + MAOI, male mice) is listed as “the potentiation being very intense at the doses of 8 to 32 mg/kg”. In data set [10] (setting [13]), the head twitches result was “distinctly potentiate the partial trembling and the head twitches”; the partial trembling entry was “distinctly potentiate the partial trembling and the head twitches”. Moreover, the teratogenic effects entry with pregnant rabbits is “devoid of harmful teratogenic effects on pregnant rabbits”. Further, the “effectiveness in ambulant patients with depressive symptomatology” value in data set [11] (asthenia, slowing down or both psycho-intellectual and motor inhibition) is reported as “particularly effective”. In addition, the “results in human therapy (depression)” value in data set [11] (daily oral administration to adults) is reported as “excellent results”.
In the case of `CC1(C)NCC(O)(c2ccccc2)CN1` [CRL 41 365, 2,2-dimethyl-5-hydroxy-5-phenyl-1,2,3,4,5,6-hexahydropyrimidine], the “LD0 (maximum non-lethal dose)” value in the data set on male mice (intraperitoneal) was “greater than 512 mg/kg”. Further, the “overall behavior and reactivities” value is “sedation, for 1 h; also recorded: a decrease in the heart rate for 1 h; also recorded: a decrease in the reactivity to touch for 0.5 h; also recorded: hypothermia for 3 h” in the data set with mice [1] (256 mg/kg); “no distinct modification of the behavior and reactivities compared with the control animals” with mice [1] (16 and 64 mg/kg); “no distinct modification of the behavior and reactivities compared with the control animals” in the data set with rats (8 mg/kg); “sedation and a decrease in the breathing rate for 1 h; also recorded: a decrease in the reactivity to touch for 0.5 h” with rats (32 mg/kg); “sedation and a decrease in the breathing rate for 3 h; also recorded: a decrease in the reactivity to touch for 1 h” in the data set with rats (128 mg/kg). In the data set on mice [1] (256 mg/kg, 0.5 h after administration), the “hypothermia, maximum intensity” value was -1.6 °C. Moreover, in data set [12], the “action on stereotypies induced by amphetamine” value is listed as “at all the doses studied, this product potentiates the stereotypies induced by amphetamine”. For the same molecule, the period of immobility result in the data set on mice [7] is on record as “a very moderate decrease in the period of immobility of mice which have been forcibly immersed”. The sedative effects result in data set [8] (i.p.) was “sedation with a decrease in the reactivities in rats and mice, hypothermia in mice”. In addition, the overall neuropsychopharmacological profile entry in data set [8] was “essentially a sedative”.
